In patent publication US11919896B2, “[1,2,4]triazolo[1,5-a]pyridine compound as JAK inhibitor and use thereof” (Zhuhai United Laboratories Co., Ltd., priority 2018, dated 2024):
Values joined by “and” are separate entries in the source; they are usually repeats but may differ in a detail not shown here. Equal values may be shown once. Read-outs that look alike come from different tables or passages of the source. Marks after values point to notes of the source that are not given here.

Experiments:
TYK2 = TYK2 (Homo sapiens (Human), UniProt P29597); test: In vitro kinase activity test, TYK2(h) enzyme reaction; format: biochemical
TYK2, sequence (P29597 whole entry): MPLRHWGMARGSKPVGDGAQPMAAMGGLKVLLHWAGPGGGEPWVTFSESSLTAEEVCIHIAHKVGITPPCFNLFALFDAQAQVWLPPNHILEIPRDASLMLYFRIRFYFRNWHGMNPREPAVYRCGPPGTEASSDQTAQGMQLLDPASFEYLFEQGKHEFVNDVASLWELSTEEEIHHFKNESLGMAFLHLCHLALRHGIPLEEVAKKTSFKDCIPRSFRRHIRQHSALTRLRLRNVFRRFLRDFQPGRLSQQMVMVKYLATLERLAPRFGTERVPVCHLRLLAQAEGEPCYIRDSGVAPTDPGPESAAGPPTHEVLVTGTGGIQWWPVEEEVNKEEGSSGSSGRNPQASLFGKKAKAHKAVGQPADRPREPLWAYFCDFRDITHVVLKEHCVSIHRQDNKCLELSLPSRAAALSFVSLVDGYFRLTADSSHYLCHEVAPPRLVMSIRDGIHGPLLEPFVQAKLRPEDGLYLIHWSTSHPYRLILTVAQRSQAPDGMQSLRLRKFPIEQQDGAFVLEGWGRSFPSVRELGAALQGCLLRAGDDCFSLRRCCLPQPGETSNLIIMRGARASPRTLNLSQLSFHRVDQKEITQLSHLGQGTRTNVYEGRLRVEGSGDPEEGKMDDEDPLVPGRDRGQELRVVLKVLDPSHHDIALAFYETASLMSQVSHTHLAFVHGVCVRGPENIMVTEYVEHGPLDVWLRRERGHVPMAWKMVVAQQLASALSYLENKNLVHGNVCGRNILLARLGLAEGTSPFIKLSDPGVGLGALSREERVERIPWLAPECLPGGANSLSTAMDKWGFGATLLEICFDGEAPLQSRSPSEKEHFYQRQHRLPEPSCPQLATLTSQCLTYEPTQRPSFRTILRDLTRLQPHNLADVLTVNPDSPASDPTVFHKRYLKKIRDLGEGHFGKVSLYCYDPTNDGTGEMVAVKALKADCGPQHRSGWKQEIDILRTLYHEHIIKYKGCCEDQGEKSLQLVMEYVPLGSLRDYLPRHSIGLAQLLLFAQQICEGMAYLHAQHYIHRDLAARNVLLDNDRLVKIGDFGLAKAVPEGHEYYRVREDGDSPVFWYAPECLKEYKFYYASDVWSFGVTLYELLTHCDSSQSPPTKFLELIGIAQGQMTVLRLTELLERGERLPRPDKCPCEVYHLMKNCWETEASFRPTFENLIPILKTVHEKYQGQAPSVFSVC
Description: (§1) Recombinant human JAK1, JAK2, JAK3, Tyk2 protease, most of the apparatuses and reagents were supplied by Eurofins (UK).
(§2) All the compounds were prepared into 100% DMSO solution and the concentration reached final measured concentration of 50 times. The test compound was diluted by a 3-fold concentration gradient, and the final concentration was 9 concentrations from 10 μM to 0.001 μM. The content of DMSO in the detect reaction was 2%. The stock solution of this compound was added into wells as a first component, then the other components were added as the following detailed process.
Enzyme Reaction of TYK2(h)
(§3) Mixture of Mg/ATP was added to start reaction, which was stopped by adding 0.5% phosphoric acid after 40 minutes incubation.

JAK1 = JAK1 (Homo sapiens (Human), UniProt P23458); test: In vitro kinase activity test, JAK1(h) enzyme reaction; format: biochemical
JAK1, sequence (P23458 whole entry): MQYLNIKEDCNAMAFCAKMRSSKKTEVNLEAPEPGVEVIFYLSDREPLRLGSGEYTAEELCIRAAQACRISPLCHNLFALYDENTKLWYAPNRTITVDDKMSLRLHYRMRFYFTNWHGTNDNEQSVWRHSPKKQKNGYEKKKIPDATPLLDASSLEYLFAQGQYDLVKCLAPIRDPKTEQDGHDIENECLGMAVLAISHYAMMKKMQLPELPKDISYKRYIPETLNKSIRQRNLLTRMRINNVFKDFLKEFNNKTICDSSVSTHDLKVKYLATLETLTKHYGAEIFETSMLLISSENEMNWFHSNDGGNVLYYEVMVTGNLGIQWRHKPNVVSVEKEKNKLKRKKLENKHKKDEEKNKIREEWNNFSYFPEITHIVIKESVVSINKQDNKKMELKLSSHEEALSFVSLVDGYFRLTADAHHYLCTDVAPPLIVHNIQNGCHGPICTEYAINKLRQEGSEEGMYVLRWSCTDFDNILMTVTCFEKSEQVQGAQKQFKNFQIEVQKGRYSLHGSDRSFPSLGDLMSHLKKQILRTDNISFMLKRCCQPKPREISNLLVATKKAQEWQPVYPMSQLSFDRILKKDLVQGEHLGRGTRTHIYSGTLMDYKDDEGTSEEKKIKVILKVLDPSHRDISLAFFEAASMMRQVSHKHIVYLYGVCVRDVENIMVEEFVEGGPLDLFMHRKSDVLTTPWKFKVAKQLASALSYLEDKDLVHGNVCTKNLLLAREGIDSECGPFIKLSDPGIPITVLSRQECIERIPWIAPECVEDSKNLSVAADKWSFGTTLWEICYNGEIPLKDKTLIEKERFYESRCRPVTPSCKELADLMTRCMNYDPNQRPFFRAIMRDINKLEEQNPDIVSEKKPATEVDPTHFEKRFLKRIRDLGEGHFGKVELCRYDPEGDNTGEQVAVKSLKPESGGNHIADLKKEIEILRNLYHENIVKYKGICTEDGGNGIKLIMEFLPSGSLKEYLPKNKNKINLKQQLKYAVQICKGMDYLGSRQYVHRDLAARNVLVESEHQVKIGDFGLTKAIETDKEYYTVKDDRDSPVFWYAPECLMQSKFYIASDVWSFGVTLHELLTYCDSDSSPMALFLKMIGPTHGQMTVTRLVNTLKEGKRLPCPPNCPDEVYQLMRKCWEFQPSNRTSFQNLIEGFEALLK
Description: (§4) Experiment 1: In Vitro Test of Activities of Jak1, Jak2, Jak3, Tyk2 Kinases
as §1, §2
Enzyme Reaction of JAK1(h)
Mixture of Mg/ATP was added to start reaction, which was stopped by adding 0.5% phosphoric acid after 40 minutes incubation at room temperature.

JAK3 = JAK3 (Homo sapiens (Human), UniProt P52333); test: In vitro kinase activity test, JAK3(h) enzyme reaction; format: biochemical
JAK3, sequence (P52333 whole entry): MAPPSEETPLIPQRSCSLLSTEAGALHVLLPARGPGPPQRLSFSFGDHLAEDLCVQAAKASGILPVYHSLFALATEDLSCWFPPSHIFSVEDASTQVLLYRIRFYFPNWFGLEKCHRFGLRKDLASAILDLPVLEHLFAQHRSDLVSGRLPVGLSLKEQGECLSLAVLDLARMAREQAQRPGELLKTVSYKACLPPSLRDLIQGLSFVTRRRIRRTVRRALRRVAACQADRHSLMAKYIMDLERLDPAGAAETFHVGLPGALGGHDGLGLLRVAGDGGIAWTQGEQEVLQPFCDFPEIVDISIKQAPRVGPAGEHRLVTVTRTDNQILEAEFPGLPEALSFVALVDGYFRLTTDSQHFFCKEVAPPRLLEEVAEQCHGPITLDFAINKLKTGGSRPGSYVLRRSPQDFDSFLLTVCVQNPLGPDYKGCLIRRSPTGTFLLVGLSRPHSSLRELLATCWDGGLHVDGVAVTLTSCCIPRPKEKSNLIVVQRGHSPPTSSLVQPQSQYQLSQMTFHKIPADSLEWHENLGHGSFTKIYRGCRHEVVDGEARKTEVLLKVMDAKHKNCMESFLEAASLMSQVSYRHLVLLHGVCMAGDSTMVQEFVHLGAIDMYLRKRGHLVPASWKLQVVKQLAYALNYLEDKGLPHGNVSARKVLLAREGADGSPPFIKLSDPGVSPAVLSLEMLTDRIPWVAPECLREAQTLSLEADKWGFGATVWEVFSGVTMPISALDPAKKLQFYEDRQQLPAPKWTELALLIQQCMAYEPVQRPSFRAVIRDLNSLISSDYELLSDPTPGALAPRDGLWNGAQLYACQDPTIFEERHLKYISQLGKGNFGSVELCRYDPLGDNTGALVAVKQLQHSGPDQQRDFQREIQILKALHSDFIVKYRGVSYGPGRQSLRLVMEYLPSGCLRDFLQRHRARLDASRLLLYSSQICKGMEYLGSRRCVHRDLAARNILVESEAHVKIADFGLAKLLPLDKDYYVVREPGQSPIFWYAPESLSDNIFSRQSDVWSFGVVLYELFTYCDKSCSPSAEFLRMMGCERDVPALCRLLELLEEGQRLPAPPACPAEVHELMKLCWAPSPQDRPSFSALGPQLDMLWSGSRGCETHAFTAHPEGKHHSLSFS
Description: as §1, §2
Enzyme Reaction of JAK3(h)
as §3

[1] = test system: collagen-induced arthritis (CIA) in mice; format: in vivo, DBA/1 mice; design: key to Average clinical score: score 0-4 per limb, max 16 per animal
Description: Experiment 3: In Vivo Efficacy Study of Collagen-Induced Arthritis (CIA) in Mice
1. Type II Collagen/Complete Freund's Adjuvant Immune
Preparation of acetic acid: 2N acetic acid was diluted to 100 mM, filtered by 0.22 micron filter membrane, and stored at 4° C.
Bovine type 2 collagen (CII) was dissolved in 100 mM acetic acid solution, then stored overnight at 4° C. Final concentration of the collagen is 8 mg/ml.
Preparation of emulsion: the overnight stored CII solution was mixed with equal volume of complete Freund's adjuvant, and homogenized on ice on a high-speed homogenizer at 30,000 revolutions per minute for approximately 60 minutes until the solution forms a stable emulsion.
2. Induction of Arthritis:
Mice were randomly divided into different treatment groups. The day for the first immunization is recorded as day 0, and the subsequent days are marked in order.
DBA/1 mice were anesthetized with isoflurane and injected with […] prepared collagen emulsion (containing […] CII) subcutaneously (2-3 cm from the root of the tail). At day 21, the tail was injected with the same volume of collagen emulsion in the same way. The mice in the normal group was not immunized.
3. Designs of Administration and Dosages
At day 28, when average clinical score is about […] with moderate incidence were selected ad randomly divided into 5 treatment groups based on body weights and scores, with each group having 8 mice.
Dexamethasone (Dex.) was used as a reference drug for measuring whether the model was successfully established, with a dose of 0.3 mg/kg (a commonly used dose in a CIA model). […] They were administered twice a day for a total of 14 days.
4. Measuring of Incidence Index of Arthritis
Clinical observation: from 7 days before immunization to the 21st day after immunization, the basic health status and weight changes of DBA/1 mice was observed daily (recorded once a week). After the 22nd day, the health status, the incidence circumstances, and weight changes of the mice was observed every day (recorded at least three times a week) until the end of the experiment.
Clinical scoring: the incidence of the mice was observed every day after boosting the immune function. After the mice was attacked (showing clinical symptoms of arthritis), the incidence was scored from 0-4 as scoring standard according to different levels of the disease (redness, joint deformation). The highest score for each limb is 4, and the highest score for each animal is 16. The scoring was performed three times a week.
The experimental data is expressed as mean standard error (Mean SEM), and the area under the curve (AUC) is analyzed by one-way ANOVA. P<0.05 is considered to be significant.

JAK2 = JAK2 (Homo sapiens (Human), UniProt O60674); test: In vitro kinase activity test, JAK2(h) enzyme reaction; format: biochemical
JAK2, sequence (O60674 whole entry): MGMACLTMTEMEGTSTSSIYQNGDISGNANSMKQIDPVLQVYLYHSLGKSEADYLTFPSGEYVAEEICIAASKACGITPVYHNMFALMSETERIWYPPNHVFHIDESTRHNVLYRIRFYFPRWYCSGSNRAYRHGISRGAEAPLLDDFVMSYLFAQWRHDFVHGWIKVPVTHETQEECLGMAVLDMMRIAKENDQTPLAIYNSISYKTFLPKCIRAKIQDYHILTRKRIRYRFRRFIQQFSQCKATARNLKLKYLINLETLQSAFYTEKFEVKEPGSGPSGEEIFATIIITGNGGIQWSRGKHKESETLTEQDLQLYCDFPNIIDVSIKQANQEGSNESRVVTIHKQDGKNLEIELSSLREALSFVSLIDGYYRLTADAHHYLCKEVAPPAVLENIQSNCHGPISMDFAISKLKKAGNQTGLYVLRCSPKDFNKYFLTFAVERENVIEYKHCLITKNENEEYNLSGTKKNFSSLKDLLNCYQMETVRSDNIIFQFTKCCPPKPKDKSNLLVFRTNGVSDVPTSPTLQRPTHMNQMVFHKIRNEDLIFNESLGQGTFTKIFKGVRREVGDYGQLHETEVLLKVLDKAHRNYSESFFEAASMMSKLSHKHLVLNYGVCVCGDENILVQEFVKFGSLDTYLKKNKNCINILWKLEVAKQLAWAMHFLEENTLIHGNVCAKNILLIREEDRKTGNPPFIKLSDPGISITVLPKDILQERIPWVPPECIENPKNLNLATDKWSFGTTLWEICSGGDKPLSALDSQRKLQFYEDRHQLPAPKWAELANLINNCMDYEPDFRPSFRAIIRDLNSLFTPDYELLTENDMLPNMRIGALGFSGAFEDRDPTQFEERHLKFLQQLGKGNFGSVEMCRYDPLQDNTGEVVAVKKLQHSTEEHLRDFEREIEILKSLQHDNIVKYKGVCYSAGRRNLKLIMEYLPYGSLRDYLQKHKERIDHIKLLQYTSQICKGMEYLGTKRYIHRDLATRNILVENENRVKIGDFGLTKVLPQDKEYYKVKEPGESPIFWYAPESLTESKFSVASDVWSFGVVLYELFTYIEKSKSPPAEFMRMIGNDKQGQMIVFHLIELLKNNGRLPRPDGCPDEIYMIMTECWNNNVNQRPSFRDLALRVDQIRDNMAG
Description: as §4, §1, §2
Enzyme Reaction of JAK2(h)
as §3

[2] = test system: adjuvant-induced arthritis rat model; details: AIA rats, 30 mg/kg p.o. bid
[3] = CIA mice, 0.3 mg/kg p.o. qd, day 21
[4] = CIA mice, 0.3 mg/kg p.o. qd, day 24
[5] = CIA mice, 0.3 mg/kg p.o. qd, day 27
[6] = CIA mice, 0.3 mg/kg p.o. qd, day 28
[7] = CIA mice, 0.3 mg/kg p.o. qd, day 29
[8] = CIA mice, 0.3 mg/kg p.o. qd, day 31
[9] = CIA mice, 0.3 mg/kg p.o. qd, day 31, listed as Dex
[10] = CIA mice, 0.3 mg/kg p.o. qd, day 34
[11] = CIA mice, 0.3 mg/kg p.o. qd, day 36
[12] = CIA mice, 0.3 mg/kg p.o. qd, day 38
[13] = CIA mice, 0.3 mg/kg p.o. qd, day 41

N#CCCN1CC2(CCC(c3cccc4nc(NC(=O)C5CC5)nn34)CC2)C1 [Compound 1-17] was tested, and the IC50 (TYK2) was 371 nM, the IC50 (JAK1) was 65 nM and the IC50 (JAK3) was over 10000 nM.

For C[C@@H]1C[C@H]2[C@@H]3CCC4=CC(=O)C=C[C@]4(C)[C@@]3(F)[C@@H](O)C[C@]2(C)[C@@]1(O)C(=O)CO [Dexamethasone], the “Inhibition rate (clinical score AUC vs blank group)” value ([1]; CIA mice, 0.3 mg/kg p.o. qd) was 97.3%, the “AUC ± SEM of clinical score (AUC of incidence)” value ([1]; CIA mice, 0.3 mg/kg p.o. qd, administration period) was 1.38 ± 0.81 and the Average clinical score [1, 3] was 0.00 ± 0.00. For the same molecule, the Incidence of arthritis [1, 3] was 0%, the Average clinical score [1, 4] was 0.00 ± 0.00 and the Incidence of arthritis [1, 4] was 0%. For the same molecule, the Average clinical score [1, 5] was “about 0.3”, the Incidence of arthritis [1, 5] was 25% and the Average clinical score ([1]; CIA mice, 0.3 mg/kg p.o. qd, day 27, listed as Dex) was 0.25 ± 0.16. The Average clinical score [1, 6] was 0.50 ± 0.27, the Incidence of arthritis [1, 6] was 38% and the Average clinical score [1, 7] was 0.25 ± 0.16. The Incidence of arthritis [1, 7] was 25%, the Average clinical score [1, 8] was 0 and the Incidence of arthritis [1, 8] was 0%. The Average clinical score [1, 9] was 0.00 ± 0.00, the Incidence of arthritis [1, 9] was 0% and the Average clinical score [1, 10] was 0.00 ± 0.00. For the same molecule, the Incidence of arthritis [1, 10] was 0%, the Average clinical score [1, 11] was 0.00 ± 0.00 and the Incidence of arthritis [1, 11] was 0%. It also gave an Average clinical score [1, 12] of 0.00 ± 0.00, an Incidence of arthritis [1, 12] of 0% and an Average clinical score [1, 13] of 0.00 ± 0.00. For the same molecule, the Incidence of arthritis [1, 13] was 0%, the “Inhibition rate (clinical score AUC vs blank group)” value ([1]; CIA mice, 0.3 mg/kg p.o. qd, listed as Dex) was 97.3% and the “Effect on the weight of mice (comparison between groups)” value ([1]; mouse, in vivo, po, 0.3 mg/kg) was “largest weight loss”.

N#CCC(=O)N1CC2(CCC(F)(c3cccc4nc(NC(=O)C5CC5)nn34)CC2)C1 [Compound 4-6] showed an IC50 (TYK2) of 307 nM, an IC50 (JAK1) of 170 nM and an IC50 (JAK2) of 2010 nM. It also gave an IC50 (JAK3) of 8450 nM.

For CC(C)(C#N)C(=O)N1CC2(CCC(c3cccc4nc(NC(=O)C5CC5)nn34)CC2)C1 [Compound 1-15], the IC50 (TYK2) was 106 nM, the IC50 (JAK1) was 20 nM and the IC50 (JAK3) was 9670 nM.

For N#CCN1CC2(CCC(c3cccc4nc(NC(=O)[C@H]5CC5(F)F)nn34)CC2)C1 [Compound 8-9], the IC50 (TYK2) was 1330 nM, the IC50 (JAK1) was 52 nM and the IC50 (JAK2) was 3670 nM. For the same molecule, the IC50 (JAK3) was over 10000 nM.

In the case of O=C(Nc1nc2cccc(C3CCC4(CC3)CCN(C(=O)[C@@H]3CC3(F)F)C4)n2n1)C1CC1 (some centres unmarked) [Compound 5-8], the IC50 (TYK2) is reported as 692 nM, the IC50 (JAK1) is reported as 75 nM and the IC50 (JAK2) is reported as 789 nM. The IC50 (JAK3) was 7350 nM.

O=C(Nc1nc2cccc([C@@H]3CCC4(CCN(C(=O)[C@@H]5CC5(F)F)CC4)C3)n2n1)C1CC1 [Compound 6-8] showed an IC50 (TYK2) of 570 nM, an IC50 (JAK1) of 381 nM and an IC50 (JAK3) of over 10000 nM.

Work on O=C(Nc1nc2cccc(C3CCC4(CC3)CN(C(=O)[C@@H]3CC3(F)F)C4)n2n1)[C@H]1CC1(F)F [Compound 8-6] yielded an IC50 (TYK2) of 127 nM, an IC50 (JAK1) of 14 nM and an IC50 (JAK2) of 110 nM. The IC50 (JAK3) was 7640 nM.

In the case of O=C(Nc1nc2cccc([C@H]3CCC4(CCN(C(=O)[C@@H]5CC5(F)F)CC4)C3)n2n1)C1CC1 [Compound 6-7], the IC50 (TYK2) is reported as 829 nM, the IC50 (JAK1) is reported as 63 nM and the IC50 (JAK3) is reported as 9390 nM.

For O=C(Nc1nc2cccc(-c3ccc(CN4CCS(=O)(=O)CC4)cc3)n2n1)C1CC1 [Filgotinib], the “Inhibition rate of total pathological score” value [2] was 5%, the “Clinical scoring, average” value ([2]; day 13) was 6.0 and the “Feet volume, average” value ([2]; day 13) was 1.9 mL. For the same molecule, the “Clinical scoring, average” value ([2]; day 15) was 6.6, the “Feet volume, average” value ([2]; day 15) was 2.2 mL and the “Clinical scoring, average” value ([2]; day 17) was 6.3. The “Feet volume, average” value ([2]; day 17) was 2.0** mL, the “Clinical scoring, average” value ([2]; day 20) was 5.8** and the “Feet volume, average” value ([2]; day 20) was 1.9**** mL. For the same molecule, the “Clinical scoring, average” value ([2]; day 22) was 5.5***, the “Feet volume, average” value ([2]; day 22) was 2.0**** mL and the “Clinical scoring, average” value ([2]; day 24) was 5.4****. The “Feet volume, average” value ([2]; day 24) was 2.0**** mL, the “Feet volume, average” value ([2]; day 27) was 1.91 mL and 1.9**** mL and the “Pathology Scoring: Bone resorption” value ([2]; day 27, right hind leg) was 3.6 ± 0.2. For the same molecule, the “Pathology Scoring: Pannus formation” value ([2]; day 27, right hind leg) was 3.9 ± 0.1, the “Pathology Scoring: Total score” value ([2]; day 27, right hind leg) was 15.2±0.49 and 15.2 ± 0.5 and the “Pathology Scoring: articular injury” value ([2]; day 27, right hind leg) was 3.7 ± 0.2.

With N#CCN1CC2(CCC(c3cccc4nc(NC(=O)[C@@H]5CC5(F)F)nn34)CC2)C1 [Compound 9-6] the IC50 (TYK2) was 1390 nM, the IC50 (JAK1) was 432 nM and the IC50 (JAK2) was 1170 nM. The IC50 (JAK3) was over 10000 nM.

O=C(Nc1nc2cccc([C@@H]3CCC4(C3)CN(C(=O)[C@@H]3CC3(F)F)C4)n2n1)C1CC1 [Compound 7-8] gave an IC50 (TYK2) of 404 nM, an IC50 (JAK1) of 176 nM and an IC50 (JAK3) of over 10000 nM.

Molecule O=C(Nc1nc2cccc([C@H]3CCC4(C3)CN(C(=O)[C@@H]3CC3(F)F)C4)n2n1)C1CC1 [Compound 7-7] has an IC50 (TYK2) of 830 nM, an IC50 (JAK1) of 63 nM and an IC50 (JAK3) of over 10000 nM.

O=C(Nc1nc2cccc(C3CCC4(CC3)CCN(C(=O)[C@@H]3CC3(F)F)C4)n2n1)C1CC1 (some centres unmarked) [Compound 5-7] showed an IC50 (TYK2) of 67 nM, an IC50 (JAK1) of 31 nM and an IC50 (JAK2) of 324 nM. For the same molecule, the IC50 (JAK3) was 5760 nM.

With O=C(Nc1nc2cccc(C3CCC4(CC3)CN(C(=O)[C@@H]3CC3(F)F)C4)n2n1)[C@@H]1CC1(F)F [Compound 9-3] the IC50 (TYK2) was 105 nM, the IC50 (JAK1) was 7 nM and the IC50 (JAK2) was 292 nM. The IC50 (JAK3) was over 10000 nM.

In the case of N#CCN1CC2(CCC(c3cccc4nc(NC(=O)C5CC5)nn34)CC2)C1 [Compound 1-16], the IC50 (TYK2) is reported as 581 nM, the IC50 (JAK1) is reported as 114 nM and the IC50 (JAK3) is reported as over 10000 nM.

N#CCC(=O)N1CCC2(CCC(c3c(F)ccc4nc(NC(=O)C5CC5)nn34)CC2)CC1 [Compound 10-5] was tested, and the IC50 (TYK2) was 430 nM, the IC50 (JAK1) was 336 nM and the IC50 (JAK2) was 812 nM. The IC50 (JAK3) was 5410 nM.
